Results: PubChem BioAssay (NCI)
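Here, GI50 denotes the concentration required for 50% inhibition of growth. TGI marks complete inhibition of growth.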

Key:
Assay in all cases: DTP human tumour cell line panel, 384-well format
HCT-116 colon = test system: HCT-116 colon
OVCAR-3 ovarian = test system: OVCAR-3 ovarian
HOP-62 NSCLC = test system: HOP-62 NSCLC
TK-10 renal = test system: TK-10 renal
MALME-3M melanoma = test system: MALME-3M melanoma
A498 renal = test system: A498 renal
SF-539 CNS = test system: SF-539 CNS
RPMI-8226 leukemia = test system: RPMI-8226 leukemia
SNB-75 CNS = test system: SNB-75 CNS
COLO 205 colon = test system: COLO 205 colon
CAKI-1 renal = test system: CAKI-1 renal
MDA-MB-435 melanoma = test system: MDA-MB-435 melanoma
OVCAR-5 ovarian = test system: OVCAR-5 ovarian
NCI-H460 NSCLC = test system: NCI-H460 NSCLC
NCI-H322M lung = test system: NCI-H322M lung
DU-145 prostate = test system: DU-145 prostate
SK-MEL-28 melanoma = test system: SK-MEL-28 melanoma
LOX IMVI melanoma = test system: LOX IMVI melanoma
NCI/ADR-RES ovarian = test system: NCI/ADR-RES ovarian
SNB-19 CNS = test system: SNB-19 CNS
MOLT-4 leukemia = test system: MOLT-4 leukemia
ACHN renal = test system: ACHN renal
RXF 393 renal = test system: RXF 393 renal
SN12C renal = test system: SN12C renal
A549 NSCLC = test system: A549 NSCLC
OVCAR-4 ovarian = test system: OVCAR-4 ovarian
HL-60(TB) leukemia = test system: HL-60(TB) leukemia
HOP-92 NSCLC = test system: HOP-92 NSCLC
MDA-MB-468 breast = test system: MDA-MB-468 breast
IGROV1 ovarian = test system: IGROV1 ovarian
MCF7 breast = test system: MCF7 breast
HS 578T breast = test system: HS 578T breast
HCT-15 colon = test system: HCT-15 colon
NCI-H23 lung = test system: NCI-H23 lung
OVCAR-8 ovarian = test system: OVCAR-8 ovarian
EKVX NSCLC = test system: EKVX NSCLC
MDA-MB-231 breast = test system: MDA-MB-231 breast
SF-295 CNS = test system: SF-295 CNS
HT29 colon = test system: HT29 colon
SK-MEL-5 melanoma = test system: SK-MEL-5 melanoma
PC-3 prostate = test system: PC-3 prostate
NCI-H226 lung = test system: NCI-H226 lung
T-47D breast = test system: T-47D breast
NCI-H522 lung = test system: NCI-H522 lung
UACC-257 melanoma = test system: UACC-257 melanoma
SR leukemia = test system: SR leukemia
KM12 colon = test system: KM12 colon
UACC-62 melanoma = test system: UACC-62 melanoma
SF-268 CNS = test system: SF-268 CNS
BT-549 breast = test system: BT-549 breast
U251 glioblastoma = test system: U251 glioblastoma
SK-OV-3 ovarian = test system: SK-OV-3 ovarian
786-0 renal = test system: 786-0 renal
K-562 leukemia = test system: K-562 leukemia
SW-620 colon = test system: SW-620 colon
CCRF-CEM leukemia = test system: CCRF-CEM leukemia
M14 melanoma = test system: M14 melanoma
UO-31 renal = test system: UO-31 renal
HCC-2998 colon = test system: HCC-2998 colon

## Cn1ncnc1C1c2n[nH]c(=O)c3cc(F)cc(c23)NC1c1ccc(F)cc1 (stereo not drawn)
HCT-116 colon
  GI50: 857 nM
  TGI: > 100000 nM
OVCAR-3 ovarian
  GI50: 82.7 µM
  TGI: > 100000 nM
HOP-62 NSCLC
  GI50: 278 nM
  TGI: 4.14 µM
TK-10 renal
  GI50: > 100 µM
  TGI: > 100000 nM
MALME-3M melanoma
  GI50: > 100000 nM
  TGI: > 100000 nM
A498 renal
  GI50: 24.8 µM
  TGI: > 100000 nM
SF-539 CNS
  GI50: 1810 nM
  TGI: > 100000 nM
RPMI-8226 leukemia
  GI50: 1650 nM
  TGI: > 100000 nM
SNB-75 CNS
  GI50: 5.52 µM
  TGI: > 100000 nM
COLO 205 colon
  GI50: 1850 nM
  TGI: > 100000 nM
CAKI-1 renal
  GI50: > 100000 nM
  TGI: > 100000 nM
MDA-MB-435 melanoma
  GI50: > 100 µM
  TGI: > 100000 nM
OVCAR-5 ovarian
  GI50: > 100 µM
  TGI: > 100 µM
NCI-H460 NSCLC
  GI50: 19.1 nM
  TGI: 1560 nM
NCI-H322M lung
  GI50: > 100 µM
  TGI: > 100000 nM
DU-145 prostate
  GI50: 2200 nM
  TGI: 14.4 µM
SK-MEL-28 melanoma
  GI50: > 100000 nM
  TGI: > 100000 nM
LOX IMVI melanoma
  GI50: 2430 nM
  TGI: > 100000 nM
NCI/ADR-RES ovarian
  GI50: 8.17 µM
  TGI: > 100 µM
SNB-19 CNS
  GI50: 5.2 µM
  TGI: > 100000 nM
MOLT-4 leukemia
  GI50: 234 nM
  TGI: 1060 nM
ACHN renal
  GI50: 43.6 µM
  TGI: > 100000 nM
RXF 393 renal
  GI50: > 100000 nM
  TGI: > 100000 nM
SN12C renal
  GI50: 1530 nM
  TGI: > 100 µM
A549 NSCLC
  GI50: > 100000 nM
  TGI: > 100000 nM
OVCAR-4 ovarian
  GI50: 19 µM
  TGI: > 100 µM
HL-60(TB) leukemia
  GI50: 1200 nM
  TGI: 2560 nM
HOP-92 NSCLC
  GI50: > 100000 nM
  TGI: > 100000 nM
MDA-MB-468 breast
  GI50: 677 nM
  TGI: 4680 nM
IGROV1 ovarian
  GI50: > 100000 nM
  TGI: > 100000 nM
MCF7 breast
  GI50: 3.63 µM
  TGI: > 100000 nM
HS 578T breast
  GI50: > 100000 nM
  TGI: > 100000 nM
HCT-15 colon
  GI50: 32.5 µM
  TGI: > 100000 nM
NCI-H23 lung
  GI50: 1890 nM
  TGI: > 100000 nM
OVCAR-8 ovarian
  GI50: 2150 nM
  TGI: > 100 µM
EKVX NSCLC
  GI50: > 100000 nM
  TGI: > 100000 nM
MDA-MB-231 breast
  GI50: > 100 µM
  TGI: > 100 µM
SF-295 CNS
  GI50: 383 nM
  TGI: 8.07 µM
HT29 colon
  GI50: > 100000 nM
  TGI: > 100000 nM
SK-MEL-5 melanoma
  GI50: > 100000 nM
  TGI: > 100000 nM
PC-3 prostate
  GI50: > 100000 nM
  TGI: > 100000 nM
NCI-H226 lung
  GI50: > 100 µM
  TGI: > 100 µM
T-47D breast
  GI50: > 100 µM
  TGI: > 100000 nM
NCI-H522 lung
  GI50: > 100 µM
  TGI: > 100 µM
UACC-257 melanoma
  GI50: > 100000 nM
  TGI: > 100000 nM
SR leukemia
  TGI: 21.5 nM
KM12 colon
  GI50: > 100 µM
  TGI: > 100000 nM
UACC-62 melanoma
  GI50: > 100000 nM
  TGI: > 100000 nM
SF-268 CNS
  GI50: 1730 nM
  TGI: > 100000 nM
BT-549 breast
  GI50: 4.68 µM
  TGI: > 100 µM
U251 glioblastoma
  GI50: 3460 nM
  TGI: > 100000 nM
SK-OV-3 ovarian
  GI50: 2300 nM
  TGI: > 100000 nM

## Nc1nc(Cl)nc2c1ncn2[C@@H]1O[C@H](COS(N)(=O)=O)[C@@H](O)[C@H]1O
HCT-116 colon
  TGI: 40.9 nM
OVCAR-3 ovarian
  GI50: 0.0209 µM
  TGI: 41.5 nM
786-0 renal
  GI50: 17.3 nM
  TGI: 34.1 nM
TK-10 renal
  TGI: 36 nM
MALME-3M melanoma
  GI50: 11.1 nM
  TGI: 23.3 nM
A498 renal
  GI50: 0.0198 µM
  TGI: 39.2 nM
SF-539 CNS
  GI50: 15 nM
  TGI: 28.6 nM
RPMI-8226 leukemia
  TGI: 11.8 nM
SNB-75 CNS
  TGI: 19.9 nM
COLO 205 colon
  GI50: 18.2 nM
  TGI: 38 nM
K-562 leukemia
  TGI: 14 nM
CAKI-1 renal
  GI50: 15.7 nM
  TGI: 42.2 nM
MDA-MB-435 melanoma
  TGI: 16.7 nM
SW-620 colon
  TGI: 42.8 nM
NCI-H460 NSCLC
  TGI: 32 nM
NCI-H322M lung
  TGI: 27.4 nM
SK-MEL-28 melanoma
  GI50: 13.8 nM
  TGI: 27.1 nM
CCRF-CEM leukemia
  TGI: 10.5 nM
LOX IMVI melanoma
  GI50: 17.3 nM
  TGI: 31.6 nM
SNB-19 CNS
  TGI: 13.6 nM
ACHN renal
  GI50: 0.0243 µM
  TGI: 57.5 nM
RXF 393 renal
  GI50: 16.5 nM
  TGI: 31.9 nM
M14 melanoma
  GI50: 16.6 nM
  TGI: 30.4 nM
A549 NSCLC
  GI50: 15.6 nM
  TGI: 44 nM
HOP-92 NSCLC
  GI50: 10 nM
  TGI: 25 nM
MDA-MB-468 breast
  GI50: 13.3 nM
  TGI: 26.5 nM
IGROV1 ovarian
  GI50: 20.5 nM
  TGI: 54.7 nM
MCF7 breast
  TGI: 69.7 nM
HS 578T breast
  GI50: 15.1 nM
  TGI: 29.4 nM
HCT-15 colon
  GI50: 0.0207 µM
  TGI: 45.1 nM
NCI-H23 lung
  GI50: 10.9 nM
  TGI: 24 nM
UO-31 renal
  GI50: 19.4 nM
  TGI: 35.8 nM
EKVX NSCLC
  GI50: 22.3 nM
  TGI: 49.5 nM
SF-295 CNS
  GI50: 21.4 nM
  TGI: 0.0483 µM
HT29 colon
  GI50: 18.4 nM
  TGI: 33.3 nM
SK-MEL-5 melanoma
  GI50: 15.9 nM
  TGI: 29.6 nM
PC-3 prostate
  GI50: 12.3 nM
  TGI: 33.6 nM
T-47D breast
  TGI: 50.7 nM
UACC-257 melanoma
  GI50: 20.1 nM
  TGI: 36.5 nM
KM12 colon
  TGI: 15.1 nM
UACC-62 melanoma
  GI50: 16.4 nM
  TGI: 30.3 nM
SF-268 CNS
  TGI: 11.4 nM
U251 glioblastoma
  GI50: 14.3 nM
  TGI: 34.2 nM
SK-OV-3 ovarian
  GI50: 12.4 nM
  TGI: 44.1 nM
HCC-2998 colon
  GI50: 14.6 nM
  TGI: 28.9 nM
